{"source": "patent US20230210831A1", "about": "“CHRONIC KIDNEY DISEASE TREATMENT OR PREVENTION METHOD” (Japan Tobacco Inc., priority 2019, published 2023)", "format_in_all_cases": "cell-based", "key": {"[1]": {"tested_on": "Salmonella typhimurium TA1535", "experiment": "Ames test (reverse mutation test), TA1535", "procedure": "(§1) The solvent used herein was dimethyl sulfoxide (DMSO, 100 µL/plate).\n(§2) The mixtures were preincubated at 37° C. for 20 minutes while shaking. […] Two plates per treatment were used."}, "[2]": {"tested_on": "Salmonella typhimurium TA1537", "experiment": "Ames test (reverse mutation test), TA1537", "procedure": "as §1, §2"}, "Escherichia coli WP2uvrA": {"tested_on": "Escherichia coli WP2uvrA", "experiment": "Ames test (reverse mutation test), WP2uvrA", "procedure": "as §1, §2"}, "[3]": {"tested_on": "Salmonella typhimurium TA98", "experiment": "Ames test (reverse mutation test), TA98", "procedure": "as §1, §2"}, "[4]": {"tested_on": "Salmonella typhimurium TA100", "experiment": "Ames test (reverse mutation test), TA100", "procedure": "as §1, §2"}}, "data": [{"smiles": "Nc1cc(-c2cccc(OC(F)(F)F)c2)n(-c2cccc(F)c2)n1", "note": "[Metabolite G]", "values": [{"measurement": "Number of revertant colonies TA1535", "setting": "[1]; S9 Mix +, dose 556 µg/plate", "value": 5}, {"measurement": "Number of revertant colonies TA1535", "setting": "[1]; S9 Mix +, dose 1667 µg/plate", "value": 4}, {"measurement": "Number of revertant colonies TA1535", "setting": "[1]; S9 Mix -, dose 185 µg/plate", "value": 9}, {"measurement": "Number of revertant colonies TA1535", "setting": "[1]; S9 Mix -, dose 556 µg/plate", "value": 0}, {"measurement": "Number of revertant colonies TA1535", "setting": "[1]; S9 Mix -, dose 1667 µg/plate", "value": 0}, {"measurement": "potential to induce reverse mutations", "setting": "[1]; TA1535 without S9 mix", "value": "showed potential to induce reverse mutations"}, {"measurement": "Number of revertant colonies TA1537", "setting": "[2]; S9 Mix +, dose 2.3 µg/plate", "value": 13}, {"measurement": "Number of revertant colonies TA1537", "setting": "[2]; S9 Mix +, dose 6.9 µg/plate", "value": 13}, {"measurement": "Number of revertant colonies TA1537", "setting": "[2]; S9 Mix +, dose 21 µg/plate", "value": 16}, {"measurement": "Number of revertant colonies TA1537", "setting": "[2]; S9 Mix +, dose 62 µg/plate", "value": 15}, {"measurement": "Number of revertant colonies TA1537", "setting": "[2]; S9 Mix +, dose 185 µg/plate", "value": 13}, {"measurement": "Number of revertant colonies TA1537", "setting": "[2]; S9 Mix +, dose 556 µg/plate", "value": 0}, {"measurement": "Number of revertant colonies TA1537", "setting": "[2]; S9 Mix +, dose 1667 µg/plate", "value": 0}, {"measurement": "Number of revertant colonies TA1537", "setting": "[2]; S9 Mix +, dose 5000 µg/plate", "value": 0}, {"measurement": "Number of revertant colonies TA1537", "setting": "[2]; S9 Mix -, dose 2.3 µg/plate", "value": 15}, {"measurement": "Number of revertant colonies TA1537", "setting": "[2]; S9 Mix -, dose 6.9 µg/plate", "value": 15}, {"measurement": "Number of revertant colonies TA1537", "setting": "[2]; S9 Mix -, dose 21 µg/plate", "value": 17}, {"measurement": "Number of revertant colonies TA1537", "setting": "[2]; S9 Mix -, dose 62 µg/plate", "value": 7}, {"measurement": "Number of revertant colonies TA1537", "setting": "[2]; S9 Mix -, dose 185 µg/plate", "value": 0}, {"measurement": "Number of revertant colonies TA1537", "setting": "[2]; S9 Mix -, dose 556 µg/plate", "value": 0}, {"measurement": "Number of revertant colonies TA1537", "setting": "[2]; S9 Mix -, dose 1667 µg/plate", "value": 0}, {"measurement": "Number of revertant colonies TA1537", "setting": "[2]; S9 Mix -, dose 5000 µg/plate", "value": 0}, {"measurement": "Number of revertant colonies WP2uvrA", "setting": "Escherichia coli WP2uvrA; S9 Mix +, dose 2.3 µg/plate", "value": 34}, {"measurement": "Number of revertant colonies WP2uvrA", "setting": "Escherichia coli WP2uvrA; S9 Mix +, dose 6.9 µg/plate", "value": 39}, {"measurement": "Number of revertant colonies WP2uvrA", "setting": "Escherichia coli WP2uvrA; S9 Mix +, dose 21 µg/plate", "value": 22}, {"measurement": "Number of revertant colonies WP2uvrA", "setting": "Escherichia coli WP2uvrA; S9 Mix +, dose 62 µg/plate", "value": 24}, {"measurement": "Number of revertant colonies WP2uvrA", "setting": "Escherichia coli WP2uvrA; S9 Mix +, dose 185 µg/plate", "value": 16}, {"measurement": "Number of revertant colonies WP2uvrA", "setting": "Escherichia coli WP2uvrA; S9 Mix +, dose 556 µg/plate", "value": 14}, {"measurement": "Number of revertant colonies WP2uvrA", "setting": "Escherichia coli WP2uvrA; S9 Mix +, dose 1667 µg/plate", "value": 9}, {"measurement": "Number of revertant colonies WP2uvrA", "setting": "Escherichia coli WP2uvrA; S9 Mix +, dose 5000 µg/plate", "value": 14}, {"measurement": "Number of revertant colonies WP2uvrA", "setting": "Escherichia coli WP2uvrA; S9 Mix -, dose 2.3 µg/plate", "value": 26}, {"measurement": "Number of revertant colonies WP2uvrA", "setting": "Escherichia coli WP2uvrA; S9 Mix -, dose 6.9 µg/plate", "value": 23}, {"measurement": "Number of revertant colonies WP2uvrA", "setting": "Escherichia coli WP2uvrA; S9 Mix -, dose 21 µg/plate", "value": 16}, {"measurement": "Number of revertant colonies WP2uvrA", "setting": "Escherichia coli WP2uvrA; S9 Mix -, dose 62 µg/plate", "value": 14}, {"measurement": "Number of revertant colonies WP2uvrA", "setting": "Escherichia coli WP2uvrA; S9 Mix -, dose 185 µg/plate", "value": 15}, {"measurement": "Number of revertant colonies WP2uvrA", "setting": "Escherichia coli WP2uvrA; S9 Mix -, dose 556 µg/plate", "value": 10}, {"measurement": "Number of revertant colonies WP2uvrA", "setting": "Escherichia coli WP2uvrA; S9 Mix -, dose 1667 µg/plate", "value": 17}, {"measurement": "Number of revertant colonies WP2uvrA", "setting": "Escherichia coli WP2uvrA; S9 Mix -, dose 5000 µg/plate", "value": 6}, {"measurement": "Number of revertant colonies TA98", "setting": "[3]; S9 Mix +, dose 2.3 µg/plate", "value": 35}, {"measurement": "Number of revertant colonies TA98", "setting": "[3]; S9 Mix +, dose 6.9 µg/plate", "value": 63}, {"measurement": "Number of revertant colonies TA98", "setting": "[3]; S9 Mix +, dose 21 µg/plate", "value": 76}, {"measurement": "Number of revertant colonies TA98", "setting": "[3]; S9 Mix +, dose 62 µg/plate", "value": 75}, {"measurement": "Number of revertant colonies TA98", "setting": "[3]; S9 Mix +, dose 185 µg/plate", "value": 45}, {"measurement": "Number of revertant colonies TA98", "setting": "[3]; S9 Mix +, dose 556 µg/plate", "value": 12}, {"measurement": "Number of revertant colonies TA98", "setting": "[3]; S9 Mix +, dose 1667 µg/plate", "value": 11}, {"measurement": "Number of revertant colonies TA98", "setting": "[3]; S9 Mix +, dose 5000 µg/plate", "value": 0}, {"measurement": "Number of revertant colonies TA98", "setting": "[3]; S9 Mix -, dose 2.3 µg/plate", "value": 31}, {"measurement": "Number of revertant colonies TA98", "setting": "[3]; S9 Mix -, dose 6.9 µg/plate", "value": 30}, {"measurement": "Number of revertant colonies TA98", "setting": "[3]; S9 Mix -, dose 21 µg/plate", "value": 31}, {"measurement": "Number of revertant colonies TA98", "setting": "[3]; S9 Mix -, dose 62 µg/plate", "value": 30}, {"measurement": "Number of revertant colonies TA98", "setting": "[3]; S9 Mix -, dose 185 µg/plate", "value": 13}, {"measurement": "Number of revertant colonies TA98", "setting": "[3]; S9 Mix -, dose 556 µg/plate", "value": 15}, {"measurement": "Number of revertant colonies TA98", "setting": "[3]; S9 Mix -, dose 1667 µg/plate", "value": 8}, {"measurement": "Number of revertant colonies TA98", "setting": "[3]; S9 Mix -, dose 5000 µg/plate", "value": 0}, {"measurement": "Number of revertant colonies TA100", "setting": "[4]; S9 Mix +, dose 2.3 µg/plate", "value": 153}, {"measurement": "Number of revertant colonies TA100", "setting": "[4]; S9 Mix +, dose 6.9 µg/plate", "value": 248}, {"measurement": "Number of revertant colonies TA100", "setting": "[4]; S9 Mix +, dose 21 µg/plate", "value": 506}, {"measurement": "Number of revertant colonies TA100", "setting": "[4]; S9 Mix +, dose 62 µg/plate", "value": 630}, {"measurement": "Number of revertant colonies TA100", "setting": "[4]; S9 Mix +, dose 185 µg/plate", "value": 380}, {"measurement": "Number of revertant colonies TA100", "setting": "[4]; S9 Mix +, dose 556 µg/plate", "value": 82}, {"measurement": "Number of revertant colonies TA100", "setting": "[4]; S9 Mix +, dose 1667 µg/plate", "value": 94}, {"measurement": "Number of revertant colonies TA100", "setting": "[4]; S9 Mix +, dose 5000 µg/plate", "value": 226}, {"measurement": "Number of revertant colonies TA100", "setting": "[4]; S9 Mix -, dose 2.3 µg/plate", "value": 91}, {"measurement": "Number of revertant colonies TA100", "setting": "[4]; S9 Mix -, dose 6.9 µg/plate", "value": 101}, {"measurement": "Number of revertant colonies TA100", "setting": "[4]; S9 Mix -, dose 21 µg/plate", "value": 93}, {"measurement": "Number of revertant colonies TA100", "setting": "[4]; S9 Mix -, dose 62 µg/plate", "value": 90}, {"measurement": "Number of revertant colonies TA100", "setting": "[4]; S9 Mix -, dose 185 µg/plate", "value": 80}, {"measurement": "Number of revertant colonies TA100", "setting": "[4]; S9 Mix -, dose 556 µg/plate", "value": 59}, {"measurement": "Number of revertant colonies TA100", "setting": "[4]; S9 Mix -, dose 1667 µg/plate", "value": 61}, {"measurement": "Number of revertant colonies TA100", "setting": "[4]; S9 Mix -, dose 5000 µg/plate", "value": 47}, {"measurement": "potential to induce reverse mutations", "setting": "[4]; TA100 with S9 mix", "value": "showed potential to induce reverse mutations"}]}]}
